Measurements as given in ChEMBL document CHEMBL5137017, “Identification of NVP-CLR457 as an Orally Bioavailable Non-CNS-Penetrant pan-Class IA Phosphoinositol-3-Kinase Inhibitor” (J Med Chem, 2022).
≈ marks a conversion by molar mass, not a printed value. Calls of active or inactive are those of the source. The rule behind the calls is not given here.

Experiments:
[1] = AUC(0 to Tlast) in athymic nude mouse xenografted with rat Rat1 cells expressing myr-p110alpha at 10 mg/kg, po measured after 8 days by LC-MS/MS analysis; type: ADME, organism-based; set-up: time 8 day, dose 10 mg/kg, route po; conditions: in vivo
[2] = In vivo Inhibition of AKT phosphorylation at Ser473 residue in athymic nude mouse xenografted with rat Rat1-myr-p110alpha cells at 20 mg/kg, po qd measured after 14 hrs; type: functional
[3] = AUCinfinity in Beagle dog at 5.4 mg/kg, po measured upto 24 hrs using PVP-ASD form of sample by LC-MS/MS analysis; type: ADME, organism-based, Canis lupus familiaris; set-up: time < 24 hrs, dose 5.4 mg/kg, route po; conditions: in vivo
[4] = Inhibition of wild type PI3K in human HCC1806 cells assessed as reduction in phosphorylation of AKT at Ser473 residue by Western blot analysis; type: cell-based
[5] = Stability in rat liver microsomes assessed as hepatic extraction preincubated for 3 mins followed by NADPH addition and measured after 60 mins; type: ADME, Microsome; conditions: read-out: ERH
[6] = Dose normalized AUC in beagle dog at 0.1 mg/kg, iv measured upto 24 hrs by LC-MS/MS analysis; type: ADME, organism-based, Canis lupus familiaris; conditions: in vivo
[7] = Half life in beagle dog at 0.3 mg/kg,po or 0.1 mg/kg,iv measured upto 24 hrs by LC-MS/MS analysis; type: ADME, organism-based, Canis lupus familiaris; conditions: in vivo
[8] = Effect on blood glucose level in athymic nude mouse xenografted with rat Rat1 cells expressing myr-p110alpha at 20 mg/kg, po bid measured upto 14 hrs by glucometer analysis; type: toxicity, organism-based; conditions: in vivo
[9] = tested on: Rat1; test: Antitumor activity at rat Rat1 cells expressing myr-p110delta xenografted in athymic nude mouse assessed as T/C ratio at 20 mg/kg, po bid measured after 7 to 15 days; type: functional; conditions: time 7-15 day
[10] = Toxicity in athymic nude mouse xenografted with rat Rat1 cells expressing myr-p110alpha assessed as decrease in body weight at 40 mg/kg, po bid measured after 9 days; type: organism-based; conditions: in vivo, 216 h, time 9 day
[11] = cells; conditions: Rattus norvegicus, Rat1, 1 h
[12] = Dose normalized AUC(0 to Tlast) in athymic nude mouse xenografted with rat Rat1 cells expressing myr-p110alpha at 20 mg/kg, po measured after 8 days by LC-MS/MS analysis; type: ADME, organism-based; conditions: in vivo, 192 h, time 8 day
[13] = tested on: Rat1; test: Antitumor activity at rat Rat1 cells expressing myr-p110alpha xenografted in athymic nude mouse assessed as T/C ratio at 40 mg/kg, po bid measured after 15 to 24 days; type: functional; conditions: time 15-24 day
[14] = Drug concentration in OF1 mouse brain at 1 mg/kg, iv measured at 1 hr post dose by LC-MS/MS analysis; type: ADME, organism-based; conditions: in vivo
[15] = biological target: Phosphatidylinositol 4,5-bisphosphate 3-kinase catalytic subunit alpha isoform (Homo sapiens, UniProt P42336); test: Inhibition of PI3Kalpha (unknown origin) using L-alpha-phosphatidylinositol as substrate in presence of ATP by Kinase Glo luminescence assay
[16] = Dose normalized Cmax in beagle dog at 3 mg/kg, po measured upto 24 hrs by LC-MS/MS analysis; type: ADME, organism-based, Canis lupus familiaris; conditions: in vivo
[17] = Inhibition of PI3K PTEN mutant in human MDA-MB-436 cells assessed as reduction in phosphorylation of AKT at Ser473 residue by Western blot analysis; type: cell-based
[18] = Tmax in beagle dog at 0.3 mg/kg,po or 0.1 mg/kg,iv measured upto 24 hrs by LC-MS/MS analysis; type: ADME, organism-based, Canis lupus familiaris; conditions: in vivo
[19] = Inhibition of PI3K PTEN mutant in human HCC70 cells assessed as reduction in phosphorylation of AKT at Ser473 residue by Western blot analysis; type: cell-based
[20] = Apparent permeability across apical to basolateral side in human Caco-2 cells at 10 uM measured after 120 mins by LC-MS/MS analysis; type: ADME, cell-based
[21] = tested on: Mus musculus; test: In vivo Inhibition of AKT phosphorylation at Ser473 residue in athymic nude mouse xenografted with rat Rat1-myr-p110alpha cells at 20 mg/kg, po qd measured after 1 to 10 hrs; type: functional, organism-based; conditions: time 1-10 hrs
[22] = Inhibition of PI3K PTEN mutant in human HCC1395 cells assessed as reduction in phosphorylation of AKT at Ser473 residue by Western blot analysis; type: cell-based
[23] = Oral bioavailability in OF1 mouse plasma at 10 mg/kg measured upto 24 hrs by LC-MS/MS analysis; type: ADME, organism-based
[24] = Drug concentration in OF1 mouse blood at 1 mg/kg, iv measured at 1 hr post dose by LC-MS/MS analysis; type: ADME, organism-based; conditions: whole blood, read-out: Ct
[25] = Stability in human liver microsomes assessed as hepatic extraction preincubated for 3 mins followed by NADPH addition and measured after 60 mins; type: ADME, Microsome; conditions: read-out: ERH
[26] = Aqueous solubility of compound in buffer at pH 6.8 by HPLC analysis; type: physicochemical
[27] = Oral bioavailability in beagle dog at 0.3 mg/kg measured upto 24 hrs by LC-MS/MS analysis; type: ADME, organism-based, Canis lupus familiaris; conditions: in vivo
[28] = Dose normalized AUC in beagle dog at 3 mg/kg, po measured upto 24 hrs by LC-MS/MS analysis; type: ADME, organism-based, Canis lupus familiaris; conditions: in vivo
[29] = Tmax in Sprague-Dawley rat at 3 mg/kg, po measured upto 24 hrs by LC-MS/MS analysis; type: ADME, organism-based; conditions: in vivo
[30] = Volume of distribution at steady state in OF1 mouse at 10 mg/kg,po or 3 mg/kg,iv measured upto 24 hrs by LC-MS/MS analysis; type: ADME, organism-based; conditions: in vivo
[31] = Brain to blood ratio in OF1 mouse at 1 mg/kg, iv measured at 1 hr post dose by LC-MS/MS analysis; type: ADME, organism-based; conditions: brain and blood, read-out: BBR
[32] = Dose normalized AUC in Sprague-Dawley rat at 3 mg/kg, po measured upto 24 hrs by LC-MS/MS analysis; type: ADME, organism-based; conditions: in vivo
[33] = Toxicity in athymic nude mouse xenografted with rat Rat1 cells expressing myr-p110delta assessed as drug tolerance at 20 mg/kg, po bid measured for 7 to 15 days; type: organism-based; conditions: in vivo, time 7-15 day
[34] = Minimal apparent permeability across apical to basolateral side in human Caco-2 cells at 0.25 to 30 uM measured after 120 mins by LC-MS/MS analysis; type: ADME, cell-based; conditions: dose 0.25-30 µM
[35] = cells; conditions: Homo sapiens, U-87 MG, 16 h
[36] = Oral bioavailability in Sprague-Dawley rat at 3 mg/kg measured for 0.25 to 24 hrs by LC-MS/MS analysis; type: ADME, organism-based; conditions: in vivo, time 0.25-24 hrs
[37] = Plasma protein binding in OF1 mouse plasma at 10 mg/kg,po or 3 mg/kg,iv measured after 4 hrs by rapid equilibrium dialysis method; type: ADME, organism-based; conditions: read-out: PPB (converted)
[38] = tested on: Rat1; test: Antitumor activity at rat Rat1 cells expressing myr-p110alpha xenografted in athymic nude mouse assessed as tumor growth inhibition at 40 mg/kg, po bid measured after 9 days; type: functional; conditions: Rat1, 216 h, time 9 day
[39] = Inhibition of PI3K PTEN mutant in human HCC1937 cells assessed as reduction in phosphorylation of AKT at Ser473 residue by Western blot analysis; type: cell-based

Phosphatidylinositol 4,5-bisphosphate 3-kinase catalytic subunit alpha isoform, sequence (P42336 whole entry, canonical isoform): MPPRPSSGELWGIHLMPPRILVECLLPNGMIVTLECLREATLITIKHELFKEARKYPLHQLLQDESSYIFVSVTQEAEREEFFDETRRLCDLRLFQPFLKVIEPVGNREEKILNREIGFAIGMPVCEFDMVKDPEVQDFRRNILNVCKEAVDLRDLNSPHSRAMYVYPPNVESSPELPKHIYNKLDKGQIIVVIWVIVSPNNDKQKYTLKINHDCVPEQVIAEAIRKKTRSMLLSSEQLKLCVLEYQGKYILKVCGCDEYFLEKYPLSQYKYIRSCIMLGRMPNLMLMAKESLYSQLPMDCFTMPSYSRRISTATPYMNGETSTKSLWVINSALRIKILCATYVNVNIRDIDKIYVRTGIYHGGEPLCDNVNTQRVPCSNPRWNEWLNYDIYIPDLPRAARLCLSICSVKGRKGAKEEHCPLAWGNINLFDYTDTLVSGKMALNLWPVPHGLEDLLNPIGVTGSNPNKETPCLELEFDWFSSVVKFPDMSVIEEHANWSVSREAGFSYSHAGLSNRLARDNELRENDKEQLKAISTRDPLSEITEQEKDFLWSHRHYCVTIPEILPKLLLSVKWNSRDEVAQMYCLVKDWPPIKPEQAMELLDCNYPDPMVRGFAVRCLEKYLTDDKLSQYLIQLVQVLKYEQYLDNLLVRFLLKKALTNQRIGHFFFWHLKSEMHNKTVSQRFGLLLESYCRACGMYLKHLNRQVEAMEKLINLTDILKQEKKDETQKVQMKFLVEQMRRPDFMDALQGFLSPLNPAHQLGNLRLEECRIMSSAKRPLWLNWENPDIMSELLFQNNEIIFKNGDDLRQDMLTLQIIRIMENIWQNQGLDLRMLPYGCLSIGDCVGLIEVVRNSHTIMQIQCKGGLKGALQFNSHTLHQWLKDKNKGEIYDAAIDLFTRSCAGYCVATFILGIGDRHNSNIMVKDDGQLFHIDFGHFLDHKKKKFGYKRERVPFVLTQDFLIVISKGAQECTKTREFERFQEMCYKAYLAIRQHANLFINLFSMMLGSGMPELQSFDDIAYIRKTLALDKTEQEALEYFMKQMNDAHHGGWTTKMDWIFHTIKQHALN

AUC(0-t) at 192 h [1]: 16 µM·h
AUC(0-inf) [3]: 152 µM·h
IC50 [4]: 204 nM
hepatic extraction ratio at 1 h [5]: 0.35
AUC/dose [6]: 11213 nM·h
half-life [7]: 660 min
IC50 [11]: 26 nM
AUC/dose [12]: 1.28 µM·h
Ct [14]: 31 pmol/g
IC50 [15]: 12 nM
Cmax/dose [16]: 309 nM
IC50 [17]: 179 nM
Tmax [18]: 1.3 h
Papp A→B at 2 h, 10 µM [20]: 8.9 ×10⁻⁶ cm/s
IC50 [22]: 169 nM
bioavailability [23]: 49%
concentration at 1 h [24]: 630 nM
hepatic extraction ratio at 1 h [25]: 0.37
solubility [26]: 29 µM (≈ 13.2 µg/mL)
bioavailability [27]: 98%
AUC/dose [28]: 11213 nM·h
Tmax [29]: 30 min
Vdss [30]: 2 L/kg
Kp at 1 h [31]: 0.05
AUC/dose [32]: 1709 nM·h
Papp A→B at 2 h, up to 30 µM [34]: 2.5 ×10⁻⁶ cm/s
IC50 [35]: 100 nM
bioavailability [36]: 97%
fraction unbound at 4 h [37]: 0.24
IC50 [39]: 251 nM
Structure (SMILES): C[C@H]1OC(=O)N(c2nc(-c3cnc(N)nc3C(F)(F)F)cc(N3CCOCC3)n2)[C@H]1CO
inhibition in vivo at 20 mg/kg [2]: 76%
Activity [8]: Non-Toxic
T/C [9]: -0.52
Activity [10]: Toxic
T/C [13]: -0.86
IC50 [19]: 56 nM
inhibition [21]: Active
Activity [33]: Toxic
inhibition in vivo at 40 mg/kg [38]: > 80%
